# Paper PMC10000267, “ALA‐A2 Is a Novel Anticancer Peptide Inspired by Alpha‐Lactalbumin: A Discovery from a Computational Peptide Library, In Silico Anticancer Peptide Screening and In Vitro Experimental Validation” (Global Challenges, 2023)
# Residues, ends and D or L forms follow the SMILES beside them.
# Columns and labels:
# [1] = tested on: HT29 colon adenocarcinoma cells; test: In vitro cancer cytotoxicity (MTT assay); format: cell-based, human; details: 24 h
# Protocol: (§1) All cell lines were obtained from the American Type Culture Collection (ATCC, Manassas, VA, USA). The A549 lung adenocarcinoma (ATCC CCL‐185TM), MDA‐MB‐231 triple‐negative breast adenocarcinoma (ATCC HTB‐26TM), and SH‐SY5Y neuroblastoma (ATCC CRL‐2266TM) cell lines were cultured in Dulbecco's Modified Eagle's Medium (DMEM)‐high glucose (Gibco, Thermo Fisher Scientific, MA, USA). HT29 colon adenocarcinoma (ATCC HTB‐38) cell lines were maintained in DMEM/Nutrient Mixture F‐12 (Gibco). K562 chronic myeloid leukemia (ATCC CRL‐3344) were grown in Roswell Park Memorial Institute Medium 1640 (Gibco). The cells were cultured in medium supplemented with 10% fetal bovine serum (Gibco) and 1× penicillin/streptomycin (Gibco) and incubated in a 5% CO2 incubator with saturated humidity.
# (§2) The protocol previously described by Chiangjong et al. and Baindara et al.^[ [5], [29] ^] was modified for use in determining the cytotoxicity of peptides on the various cancer types. Adherent cells were seeded at 1 × 10^4 cells/well into a 96‐well plate 24 h prior to replacing the media containing the peptide of interest. Suspended cells were seeded at 1 × 10^4 cells/well in the media containing the peptide of interest. Five human cell lines, including lung cancer (A549), colon cancer (HT29), breast cancer (MDA‐MB‐231), neuroblastoma (SH‐SY5Y), and leukemia (K562) cells, were treated with the culture media containing the peptides at 200 µM for 24 h. Cell viability was then determined using Cell Proliferation Kit I, MTT (Roche Diagnostics GmbH, Mannheim, Germany): MTT labeling reagent (10 µL) was added to each well and incubated at 37 °C in a 5% CO2 atmosphere for 4 h. After incubation, 100 µL solubilizing solution was added to each well and incubated at 37 °C in 5% CO2 overnight. The absorbance at 570 nm (A 570) was measured for each well. The percentage of cell viability was calculated as: (1) % Cell Viability=[A570 of treated cells − A570 of media/A570 of untreated cells−A570 of media] × 100
# (§3) To evaluate dose‐dependency, ≈1 × 10^4 cells/well were cultured in media containing ALA‐A2 at 0, 6.25, 12.5, 25, 50, 100, 200, and 400 µM in a 96‐well plate for 24 h. Cell viability was determined by the MTT assay, as above.
# [2] = tested on: A549 lung adenocarcinoma cells; test: In vitro cancer cytotoxicity (MTT assay); format: cell-based, human; details: 24 h
# Protocol: as §1, §2, §3
# Human red blood cells = test: Ex vivo hemolysis assay (RBC lysis assay); format: cell-based; details: ≈0.8% v/v human RBC suspension in 0.9% normal saline, peptide 200 µM, 1 h, room temperature, absorbance 415 nm, relative to 1% Triton X‐100; blood of three healthy individuals, mean ± SD
# Protocol: The hemolysis assay was as described previously.^[ [30] ^] After informed consent, peripheral blood (3 mL) was collected from three healthy individuals into heparin tubes (BD Biosciences, NJ, USA). The specimen was centrifuged at 2000 × g for 5 min at room temperature, and the plasma was discarded. The RBCs were washed twice with PBS and then resuspended in 0.9% normal saline solution at a volume equivalent to that of the original plasma. Approximately 0.8% v/v RBC suspension was incubated with the peptides at 200 µM (100 µL final volume) in a U‐bottom 96‐well plate at room temperature for 1 h with agitation. 1% v/v Triton X‐100 was applied as a positive control. The untreated condition served as the blank control. After 1 h incubation, the supernatants were collected by centrifuging at 2000 × g for 5 min at room temperature. The absorbance of hemoglobin in the supernatant was measured at 415 nm. The hemolysis percentage was calculated as follows: (2) % Hemolysis = [sample absorbance−blank control/positive control−blank control] × 100
# [3] = tested on: SH‐SY5Y neuroblastoma cells; test: In vitro cancer cytotoxicity (MTT assay); format: cell-based, human; details: peptide 200 µM, 24 h
# Protocol: as §1, §2
# [4] = tested on: MDA‐MB‐231 breast cancer cells; test: In vitro cancer cytotoxicity (MTT assay); format: cell-based, human; details: MDA‐MB‐231, peptide 200 µM, 24 h
# Protocol: as §1, §2
# K562 leukemia cells = test: In vitro cancer cytotoxicity (MTT assay); format: cell-based, human; details: K562, peptide 200 µM, 24 h
# Protocol: as §1, §2
compound,measurement,setting,value
CC(C)C[C@H](NC(=O)[C@@H](N)CCCCN)C(=O)N[C@@H](Cc1c[nH]c2ccccc12)C(=O)N[C@@H](CS)C(=O)N[C@@H](CCCCN)C(=O)N[C@@H](CO)C(=O)N[C@@H](CO)C(=O)N[C@@H](CCC(N)=O)C(=O)N[C@H](C(=O)N1CCC[C@H]1C(=O)N[C@@H](CCC(N)=O)C(=O)N[C@@H](CO)C(=O)N[C@@H](CCCNC(=N)N)C(=O)O)C(C)C [ALA‐A2] (H-KLWCKSSQVPQSR-OH),cell viability,"[1]; HT29, peptide 200 µM, 37 °C, A570, mean ± SD, three biological replicates",55.3 ± 2.7 % cell viability
same,IC50,"[1]; HT29, twofold serial dilutions 0 to 400 µM, extrapolated beyond the tested range",> 1000 µM
same,cell viability,"[2]; A549, peptide 200 µM, 37 °C, A570, mean ± SD, three biological replicates",59.7 ± 1.1 % cell viability
same,IC50,"[2]; A549, twofold serial dilutions 0 to 400 µM",~300 µM
same,percent hemolysis,Human red blood cells,7.8% ± 10.2%
same,anticancer effect (in words),[3],did not affect
same,anticancer effect (in words),[4],did not affect
same,anticancer effect (in words),K562 leukemia cells,did not affect
